Test results from US20160199354A1, “METHODS FOR OLMESARTAN DOSING BY AUC” (Autotelic LLC, priority 2015, published 2016).

What was measured:
[1] = set-up: species or system healthy subjects (Asian and non-Asian); details: in vivo
Text: PubMed database was searched to identify relevant scientific and review articles from May 2001 to June 2015 using the search term olmesartan PK. Reference lists of included articles were reviewed to locate additional references of interest. PK studies with single dose AUC of olmesartan medoxomil in healthy subjects were selected. Olmesartan medoxomil AUC from co-administration of olmesartan medoxomil with other drugs or FDC containing olmesartan medoxomil were also included if there was no known drug-drug interaction (DDI). The pharmacokinetic datasets for olmesartan were obtained from published clinical studies across Asian and non-Asian subjects with a dose range from 10 to 160 mg. More than 80% of the studies reported AUC in arithmetic mean. […] PK and demographic data from a total of 895 healthy subjects from 13 clinical studies were included in the final analysis Schwocho L R and Masonson H N. Pharmacokinetics of CS866, a new angiotensin II receptor block, in healthy subjects. J Clin Pharmacol 2001; 41:515-27; von Bergmann K, Laeis P, Pilchler K, Sudhop T, Schwocho L R, Gonzalez L. Olmesartan medoxomil: influence of age, renal and hepatic function on the PK of olmesartan medoxomil. […]

[2] = set-up: species or system Korean healthy males; details: in vivo
Protocol: Drug exposure as AUC was studied among Korean healthy males aged between 20 and 50 years in two clinical studies: (1) a randomized, open-label, multiple-dose, cross-over study of 36 subjects divided into 6 cohorts and treated over 3 periods (subjects were administered either 1 tablet of 40 mg olmesartan medoxomil, 1 tablet of 20 mg rosuvastatin calcium, or a 1 tablet each of both agents (fixed dosage composition, single dose form) orally every 24 hours for 7 days, with an 8-day washout period separating the individual treatment courses) and (2) a randomized, open-label, single-dose, cross-over study of 58 subjects divided into 2 cohorts and treated over 2 periods (Son H, Roh H, Lee D, Chang H, Kim J, Yun C, et al. Pharmacokinetics of rosuvastatin/olmesartan fixed-dose combination: a single-dose, randomized, open-label, 2-period crossover study in healthy Korean subjects. Clin Ther 2013; 35:915-22) (one tablet of ST-101, also known as olmesartan/rosuvastatin FDC, tablet of 40 mg olmesartan medoxomil/20 mg rosuvastatin calcium was administered once orally as the test drug, or 1 tablet each of 40 mg olmesartan medoxomil and 20 mg rosuvastatin calcium was co-administered once orally as the comparator; eligible subjects were randomly assigned to 2 groups (test arm vs comparator arm) in a 1:1 ratio; each subject received a single dose of the FDC or the comparator orally in a fasted state, with a 7-day washout period between the administrations.
A total of 34 volunteers in study 1 and 54 volunteers in study 2 were evaluated for olmesartan pharmacokinetic (PK) analysis. For PK analyses, blood samples were collected at 0 (pre-dose), 0.5, 2, 2.5, 3, 4, 5, 6, 7, 8, 10, 12, 16, 24, 48 hour after dosing of olmesartan either as FDC or as single agent.
FIG. 1 compares individual values of olmesartan AUC when dosed as either olmesartan single agent (OM) or olmesartan/rosuvastatin (OM/RC) fixed dose composition (FDC). […] The coefficient of variations were 29.95% and 24.42% for olmesartan single agent and OM/RC FDC, respectively. The tabulated summary of the data including Gaussian tests are shown below in Table 1.
FIG. 6 illustrates the linear correlation between the first and second pharmacokinetic determinations (AUC) for olmesartan. The linear regression is described by the following equation: Y=0.9782*X. The p value of significant deviation from 0 is less than 0.0001.

[3] = system: Korean subjects with hypertension associated with dyslipidemia; experiment: Phase 3 clinical study, variability of SBP and DBP reduction; type: in vivo, human (Korean subjects); details: once daily up to 8 weeks; olmesartan medoxomil 40 mg
Protocol: Hypertension therapy effectiveness was evaluated by evaluating the variability of systolic blood pressure (SBP) and diastolic blood pressure (DBP) reduction following dosing with olmesartan single agent (OM) or a fixed dosage composition comprising olmesartan and rosuvastatin (OM/RC FDC). […] The study was a multi-site, randomized, double-blind, placebo-controlled, factorial, 4 arm, 8 week Phase 3 clinical study of Korean subjects with hypertension associated with dyslipidemia aged between 20 and 80 years. Following a 4-week therapeutic lifestyle-change period that included a washout period, eligible patients were randomized in a 2:1:1:1 ratio to receive either OM/RC FDC, olmesartan medoxomil 40 mg, rosuvastatin calcium 20 mg, or placebo, once daily, for up to 8 weeks. A total of 183 subjects were randomized (72 subjects in OM/RC FDC, 39 subjects in olmesartan medoxomil 40 mg, 38 subjects in rosuvastatin calcium 20 mg, and 34 subjects in placebo). Among the 183 randomized subjects, 181 subjects took the investigational drug (ST-101/OM/RC FDC), 162 subjects completed the study, and 21 of […] subjects were discontinued from the study. The SBP and DBP reduction was highly variable. FIG. 2 compares the variability of systolic blood pressure (SBP) reduction after dosing with olmesartan single agent (olmesartan) or olmesartan/rosuvastatin fixed dose combination (OM/RC FDC, ST-101). […]

[4] = system: patients with hypertension; experiment: Dose response of blood pressure reduction, analysis of 21 published clinical studies; type: in vivo, human; details: olmesartan medoxomil 5 to 80 mg monotherapy, 21 clinical studies
Protocol: PubMed database was searched to identify relevant scientific and review articles from June 2001 to June 2015 using the search terms olmesartan efficacy, response, effect/clinical trial. Reference lists of included articles were reviewed to locate additional references of interest. PD studies with olmesartan medoxomil dose range from 5 to 80 mg monotherapy were selected. PD response and demographic data from a total of 10,770 patients with hypertension in 21 clinical studies were included in the analysis (Oparil S, Williams D, Chrysant S G, Marbury T C, Neutel J. (2001). Comparative efficacy of olmesartan, losartan, valsartan, and irbesartan in the control of essential hypertension. J Clin Hypertens (Greenwich) 2001; 3(5):283-318; Püchler K, Laeis P, Stumpe K O. Blood pressure response, but not adverse event incidence, correlates with dose of angiotensin II antagonist. J Hypertens Suppl 2001 June; 19(1):S41-8; Neutel J M, Elliott W J, Izzo J L, Chen C L, Masonson H N. Antihypertensive efficacy of olmesartan medoxomil, a new angiotensin II receptor antagonist, as assessed by ambulatory blood pressure measurements. […] J Hum Hypertens 2002; 16(Suppl 2):S24-8; Brunner H R, Stumpe K O, Januszewicz A. Antihypertensive efficacy of olmesartan medoxomil and candesartan cilexetil assessed by 24-hour ambulatory blood pressure monitoring in patients with essential hypertension. […]

For `CCCc1nc(C(C)(C)O)c(C(=O)OCc2oc(=O)oc2C)n1Cc1ccc(-c2ccccc2-c2nnn[nH]2)cc1` [OM Single Agent, olmesartan medoxomil], the “AUC among Asian subjects versus non-Asian subjects” value [1] was “comparable to AUC in non-Asian subjects at the same dose level”, the “dependence of AUC on dose” value [1] was “linear dose-dependent increase in AUC from 10 to 160 mg” and the “slope of linear regression between first and second AUC determinations (Y=slope*X)” value [2] was 0.9782. The “coefficient of variation of olmesartan AUC” value ([2]; po, 40 mg) was 29.95%, the “olmesartan AUC, 25% Percentile” value ([2]; po, 40 mg) was 6317 and the “olmesartan AUC, 75% Percentile” value ([2]; po, 40 mg) was 8916. For the same compound, the “olmesartan AUC, Maximum” value ([2]; po, 40 mg) was 17026, the “olmesartan AUC, Mean” value ([2]; po, 40 mg) was 7908 and the olmesartan AUC, Median ([2]; po, 40 mg) was 7450 ng·h/mL. The “olmesartan AUC, Minimum” value ([2]; po, 40 mg) was 3899, the “coefficient of variation for DBP reduction” value [3] was 79.25% and the “coefficient of variation for SBP reduction” value [3] was 78.24%. The “relationship between DBP reduction and dose (regression analysis)” value [4] was “very shallow insignificant relationship” and the “correlation between SBP reduction and dose (regression analysis)” value ([4]; p=0.04) was “only weak correlation”.
